Earlier results on two compounds are cited in US12569475B2, “Method for eradicating helicobacter pylori infection in patients regardless of body mass index” (RedHill Biopharma Ltd., priority 2020, dated 2026).

≈ marks a conversion by molar mass, not a printed value. Where a name gives a salt, the structure may show the parent alone. Read-outs that look alike come from different tables or passages of the source.

For the compound `COc1ccc2[nH]c([S+]([O-])Cc3ncc(C)c(OC)c3C)nc2c1` (racemic) [Omeprazole magnesium, 5-methoxy-2-[[(4-methoxy-3,5-dimethyl-2-pyridyl)methyl]sulfinyl]benzimidazole, (RS) magnesium salt (2:1)], the solubility in methanol result is listed as “soluble”. The solubility in water (water at 25° C.) was 0.25 mg/mL.

Regarding `CO[C@H]1/C=C/O[C@@]2(C)Oc3c(C)c(O)c4c(c3C2=O)C2=NC3(CCN(CC(C)C)CC3)NC2=C(NC(=O)/C(C)=C\C=C\[C@H](C)[C@H](O)[C@@H](C)[C@@H](O)[C@@H](C)[C@H](OC(C)=O)[C@@H]1C)C4=O` [Rifabutin, (9S,12E,14S,15R,16S,17R,18R,19R,20S,21S,22E,24Z)-6-16,18,20-tetrahydroxy-1′-isobutyl-14-methoxy-7,9,15,17,19,21,25-heptamethylspiro [9,4-(epoxypentadeca[1,11,13]trienimino)-2H-furo[2′,3′:7,8]naphth[1,2-d]imidazole-2,4′-piperidine]-5,10,26-(3H,9H)-trione-16-acetate], the solubility in methanol result was “soluble”. Under “chloroform”, the solubility in chloroform entry is recorded as “soluble”. Also, under “ethanol”, the solubility in ethanol result is given as “sparingly soluble”. For the same compound, the solubility in water (water) is reported as 0.19 mg/mL (≈ 224 µM).
